Measurements as given in ChEMBL document CHEMBL5356964, “Design, synthesis and anti-rheumatoid arthritis activity of target TLR4 inhibitors” (Bioorg Med Chem, 2024).
The source made the active and inactive calls. The rule behind the calls is not given here.

What was measured:
RAW264.7 [1] = test: Antiproliferative activity against LPS-induced- mouse RAW264.7 cells assessed as inhibition of cell growth incubated for 24 hrs by CCK-8 assay; assay type: functional, cell-based; conditions: RAW264.7, 24 h
[2] = Antiproliferative activity against rat Synovial cell assessed as inhibition of cell growth incubated for 48 hrs by CCK-8 assay; assay type: functional, cell-based
RAW264.7 [3] = test: Antiarthritic activity against LPS-induced mouse RAW264.7 cells assessed as reduction in IL-6 level at 1 uM incubated for 24 hrs (Rvb 231.1 +/- 24.2 pg/L); assay type: functional
Toll-like receptor 4 = Toll-like receptor 4 (Homo sapiens, UniProt O00206); test: Inhibition of TLR4 (unknown origin) using TMB as substrate incubated for 90 mins
RAW264.7 [4] = test: Antiarthritic activity against LPS-induced mouse RAW264.7 cells assessed as reduction in TNF-alpha level at 1 uM incubated for 24 hrs (Rvb 653.3 +/- 70.1 pg/L); assay type: functional
RAW264.7 [5] = test: Antiarthritic activity against LPS-induced mouse RAW264.7 cells assessed as reduction in IL-1beta level at 1 uM incubated for 24 hrs (Rvb 665.1 +/- 82.1 pg/L); assay type: functional
RAW264.7 [6] = test: Antiarthritic activity against LPS-induced mouse RAW264.7 cells assessed as downregulation of STAT3 expression at 1 uM preincubated with compound for 24 hrs followed by LPS-induction and measured after 24 hrs by immunofluorescence analysis; assay type: functional, cell-based; conditions: time 48.0 hrs
RAW264.7 [7] = test: Antiarthritic activity against LPS-induced mouse RAW264.7 cells assessed as reduction in TNF-alpha level at 1 uM pretreated with compound for 24 hrs followed by LPS induction and measured after 24 hrs; assay type: functional, cell-based; conditions: time 48.0 hrs
RAW264.7 [8] = test: Antiarthritic activity against LPS-induced mouse RAW264.7 cells assessed as reduction in IL-1beta level at 1 uM pretreated with compound for 24 hrs followed by LPS induction and measured after 24 hrs; assay type: functional, cell-based; conditions: time 48.0 hrs
RAW264.7 [9] = test: Antiarthritic activity against LPS-induced mouse RAW264.7 cells assessed as downregulation of TNF-alpha mRNA expression at 1 uM preincubated with compound for 24 hrs followed by LPS-induction and measured after 24 hrs by RT-PCR analysis; assay type: functional, cell-based; conditions: time 48.0 hrs
RAW264.7 [10] = test: Antiarthritic activity against LPS-induced mouse RAW264.7 cells assessed as downregulation of TLR4 expression at 1 uM preincubated with compound for 24 hrs followed by LPS-induction and measured after 24 hrs by Western blot analysis; assay type: functional, cell-based; conditions: time 48.0 hrs
RAW264.7 [11] = test: Antiarthritic activity against LPS-induced mouse RAW264.7 cells assessed as downregulation of NF-kappaB mRNA expression at 1 uM preincubated with compound for 24 hrs followed by LPS-induction and measured after 24 hrs by RT-PCR analysis; assay type: functional, cell-based; conditions: time 48.0 hrs
RAW264.7 [12] = test: Antiarthritic activity against LPS-induced mouse RAW264.7 cells assessed as downregulation of STAT3 mRNA expression at 1 uM preincubated with compound for 24 hrs followed by LPS-induction and measured after 24 hrs by RT-PCR analysis; assay type: functional, cell-based; conditions: time 48.0 hrs
RAW264.7 [13] = test: Antiarthritic activity against LPS-induced mouse RAW264.7 cells assessed as downregulation of TNF-alpha expression at 1 uM preincubated with compound for 24 hrs followed by LPS-induction and measured after 24 hrs by Western blot analysis; assay type: functional, cell-based; conditions: time 48.0 hrs
RAW264.7 [14] = test: Antiarthritic activity against LPS-induced mouse RAW264.7 cells assessed as downregulation of JAK2 mRNA expression at 1 uM preincubated with compound for 24 hrs followed by LPS-induction and measured after 24 hrs by RT-PCR analysis; assay type: functional, cell-based; conditions: time 48.0 hrs
RAW264.7 [15] = test: Antiproliferative activity against LPS-induced- mouse RAW264.7 cells assessed as decrease in number of cells at 1 uM pretreated with compound for 24 hrs followed by LPS induction and measured after 24 hrs; assay type: functional, cell-based; conditions: time 48.0 hrs
RAW264.7 [16] = test: Antiarthritic activity against LPS-induced mouse RAW264.7 cells assessed as downregulation of NF-kappaB expression at 1 uM preincubated with compound for 24 hrs followed by LPS-induction and measured after 24 hrs by immunofluorescence analysis; assay type: functional, cell-based; conditions: time 48.0 hrs
RAW264.7 [17] = test: Antiproliferative activity against LPS-induced- mouse RAW264.7 cells assessed as cell survival at 1 uM pretreated with compound for 24 hrs followed by LPS induction and measured after 24 hrs; assay type: functional, cell-based; conditions: time 48.0 hrs
RAW264.7 [18] = test: Antiarthritic activity against LPS-induced mouse RAW264.7 cells assessed as downregulation of NF-kappaB expression at 1 uM preincubated with compound for 24 hrs followed by LPS-induction and measured after 24 hrs by Western blot analysis; assay type: functional, cell-based; conditions: time 48.0 hrs
RAW264.7 [19] = test: Antiarthritic activity against LPS-induced mouse RAW264.7 cells assessed as reduction in IL-6 level at 1 uM pretreated with compound for 24 hrs followed by LPS induction and measured after 24 hrs; assay type: functional, cell-based; conditions: time 48.0 hrs
RAW264.7 [20] = test: Antiarthritic activity against LPS-induced mouse RAW264.7 cells assessed as downregulation of TLR4 expression at 1 uM preincubated with compound for 24 hrs followed by LPS-induction and measured after 24 hrs by immunofluorescence analysis; assay type: functional, cell-based; conditions: time 48.0 hrs
RAW264.7 [21] = test: Antiarthritic activity against LPS-induced mouse RAW264.7 cells assessed as downregulation of TLR4 mRNA expression at 1 uM preincubated with compound for 24 hrs followed by LPS-induction and measured after 24 hrs by RT-PCR analysis; assay type: functional, cell-based; conditions: time 48.0 hrs
RAW264.7 [22] = test: Antiarthritic activity against LPS-induced mouse RAW264.7 cells assessed as downregulation of TNF-alpha expression at 1 uM preincubated with compound for 24 hrs followed by LPS-induction and measured after 24 hrs by immunofluorescence analysis; assay type: functional, cell-based; conditions: time 48.0 hrs
RAW264.7 [23] = test: Antiarthritic activity against LPS-induced mouse RAW264.7 cells assessed as downregulation of JAK2 expression at 1 uM preincubated with compound for 24 hrs followed by LPS-induction and measured after 24 hrs by immunofluorescence analysis; assay type: functional, cell-based; conditions: time 48.0 hrs

Toll-like receptor 4, sequence (O00206 whole entry): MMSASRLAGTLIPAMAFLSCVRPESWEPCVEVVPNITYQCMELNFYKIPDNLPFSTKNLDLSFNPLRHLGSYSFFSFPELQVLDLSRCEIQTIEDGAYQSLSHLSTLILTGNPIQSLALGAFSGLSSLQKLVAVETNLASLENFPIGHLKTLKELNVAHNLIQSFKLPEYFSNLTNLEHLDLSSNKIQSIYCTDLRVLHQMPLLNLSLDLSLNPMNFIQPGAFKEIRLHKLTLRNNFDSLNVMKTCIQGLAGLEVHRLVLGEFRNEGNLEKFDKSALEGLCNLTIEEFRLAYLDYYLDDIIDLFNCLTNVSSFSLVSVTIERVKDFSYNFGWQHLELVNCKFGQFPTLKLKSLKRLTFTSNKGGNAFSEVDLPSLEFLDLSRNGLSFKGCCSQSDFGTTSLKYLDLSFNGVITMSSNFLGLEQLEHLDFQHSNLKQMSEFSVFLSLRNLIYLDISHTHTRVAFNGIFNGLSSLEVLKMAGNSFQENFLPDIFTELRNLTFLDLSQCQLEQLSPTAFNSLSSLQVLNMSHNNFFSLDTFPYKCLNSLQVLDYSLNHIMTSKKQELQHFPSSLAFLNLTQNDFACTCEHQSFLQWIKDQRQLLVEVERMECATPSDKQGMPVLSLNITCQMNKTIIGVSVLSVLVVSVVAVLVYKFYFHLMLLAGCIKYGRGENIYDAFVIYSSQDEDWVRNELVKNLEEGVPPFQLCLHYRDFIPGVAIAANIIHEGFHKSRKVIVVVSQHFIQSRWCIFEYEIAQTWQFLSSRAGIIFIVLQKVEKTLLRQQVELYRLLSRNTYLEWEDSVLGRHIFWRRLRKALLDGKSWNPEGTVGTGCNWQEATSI

Row | Compound | IC50 (RAW264.7 [1]) | IC50 [2] | Activity (RAW264.7 [3]) | Activity (RAW264.7 [4]) | Activity (RAW264.7 [5]) | also measured
1 | CCC(C)(C)C1CCC(=O)C(C(=O)CC(C)=O)C1 (stereo unspecified) | 3900 nM | 10300 nM |  |  |  | 
2 | CC(=O)CC(=O)C1CC(NC(C)=O)CCC1=O (stereo unspecified) | 1330 nM | 2610 nM | 158.9 pg/L | 365.2 pg/L | 407.2 pg/L | IC50 (Toll-like receptor 4): 1210 nM
3 | CC(=O)CC(=O)C1CC(C2=CCCCC2)CCC1=O (stereo unspecified) | 2830 nM | 5430 nM |  |  |  | 
4 | CCOC(=O)C1CCC(=O)C(C(=O)CC(C)=O)C1 (stereo unspecified) | 2630 nM | 5440 nM |  |  |  | 
5 | CCCCC1CCC(=O)C(C(=O)CC(C)=O)C1 (stereo unspecified) | 1560 nM | 2720 nM | 187.4 pg/L | 401.6 pg/L | 481.6 pg/L | IC50 (Toll-like receptor 4): 1860 nM
6 | CC(=O)CC(=O)C1CC(c2ccc(O)cc2)CCC1=O (stereo unspecified) | 3210 nM | 7940 nM |  |  |  | 
7 | CCCC1CCC(C2CCC(=O)C(C(=O)CC(C)=O)C2)CC1 (stereo unspecified) | 1710 nM | 3510 nM | 180.7 pg/L | 478.96 pg/L | 545.9 pg/L | IC50 (Toll-like receptor 4): 1780 nM
8 | CC(=O)CC(=O)C1CC(C2CCC3(CC2)OCCO3)CCC1=O (stereo unspecified) | 2510 nM | 5220 nM |  |  |  | 
9 | CC(=O)CC(=O)C1CC(N2C(=O)c3ccccc3C2=O)CCC1=O (stereo unspecified) | 2660 nM | 5960 nM |  |  |  | 
10 | CC(=O)CC(=O)C1CCCCC1=O (stereo unspecified) | 3110 nM | 4450 nM |  |  |  | 
11 | CC(=O)CC(=O)C1CC(c2ccccc2)CCC1=O (stereo unspecified) | 2180 nM | 3950 nM |  |  |  | 
12 | CC(=O)CC(=O)C1CC(N)CCC1=O (stereo unspecified) | 1200 nM | 2150 nM | 136.9 pg/L | 332.9 pg/L | 367.3 pg/L | IC50 (Toll-like receptor 4): 1030 nM
13 | CC(=O)CC(=O)C1CC(=O)CCC1=O (stereo unspecified) | 3630 nM | 6510 nM |  |  |  | 
14 | CC(=O)CC(=O)C1CC(C(C)(C)C)CCC1=O (stereo unspecified) | 2930 nM | 6430 nM |  |  |  | 
15 | CC(=O)CC(=O)C1CC(C)CCC1=O (stereo unspecified) | 1690 nM | 3320 nM | 176.6 pg/L | 399.1 pg/L | 457.8 pg/L | IC50 (Toll-like receptor 4): 1150 nM
16 | CC(=O)CC(=O)C1CC(NC(=O)OC(C)(C)C)CCC1=O (stereo unspecified) | 2670 nM | 5110 nM |  |  |  | 
17 | CC(=O)CC(=O)C1CC(Cl)CCC1=O (stereo unspecified) | 1320 nM | 2450 nM | 133.5 pg/L | 350.2 pg/L | 385.1 pg/L | IC50 (Toll-like receptor 4): 1120 nM
18 | CN(Cc1cnc2nc(N)nc(N)c2n1)c1ccc(C(=O)N[C@@H](CCC(=O)O)C(=O)O)cc1 [METHOTREXATE] | 1230 nM | 2330 nM | 115.3 pg/L | 235.3 pg/L | 334.5 pg/L | Activity (RAW264.7 [6]): inactive; Activity (RAW264.7 [7]): Active; Activity (RAW264.7 [8]): Active; Activity (RAW264.7 [9]): Active; Activity (RAW264.7 [10]): Active; Activity (RAW264.7 [11]): Active; Activity (RAW264.7 [12]): inactive; Activity (RAW264.7 [13]): Active; Activity (RAW264.7 [14]): inactive; Activity (RAW264.7 [15]): Active; Activity (RAW264.7 [16]): Active; Activity (RAW264.7 [17]): Active; Activity (RAW264.7 [18]): Active; Activity (RAW264.7 [19]): Active; Activity (RAW264.7 [20]): Active; Activity (RAW264.7 [21]): Active; Activity (RAW264.7 [22]): Active; Activity (RAW264.7 [23]): inactive
19 | COC(=O)C1CCC(=O)C(C(=O)CC(C)=O)C1 (stereo unspecified) | 7400 nM | 16600 nM |  |  |  | 
20 | CCCCCC1CCC(=O)C(C(=O)CC(C)=O)C1 (stereo unspecified) | 2450 nM | 5080 nM |  |  |  | 
21 | CC(=O)CC(=O)C1CC(NC(=O)OCc2ccccc2)CCC1=O (stereo unspecified) | 2350 nM | 4250 nM |  |  |  | 
22 | CCC1CCC(=O)C(C(=O)CC(C)=O)C1 (stereo unspecified) | 2680 nM | 5310 nM |  |  |  | 
23 | CC(=O)CC(=O)C1CC(C(=O)O)CCC1=O (stereo unspecified) | 2710 nM | 5310 nM |  |  |  | 
